# From patent US5416070A, “Composition for macrophage activation” (ImmunoTherapeutics, Inc., priority 1990, dated 1995)
# System: human peripheral blood monocytes
# Experiment: Activation of human peripheral blood monocytes to the tumoricidal state (I125 labeled A-375 tumor cells)
# Format: cell-based
# Details: effector:target 10:1, A-375 tumor cells, 72 hours
# Method: Monocyte tumoricidal activity was determined by the method of Fogler and Fidler (W. E. Fogler and I. J. Fidler, J. Immunol., 136; 2311-2317, 1986). Briefly, human peripheral blood monocytes were isolated by gradient centrifugation on 46% Percoll. Monocytes were then cultured in suspension for 18 hours in RPMI 1640 media containing 5% human sera with or without 1.0 μg/ml of Compound IIA at 1×10^6 monocytes/ml. After incubation monocytes were washed, and 1×10^5 or 5×10^4monocytes allowed to attach to wells of a 96-well microplate for 1 hour, then the plate was washed to remove non-adherent cells; to this, 1×10^4 I^125 labeled A-375 tumor cells were added. Monocytes were cultured with tumor cells for 72 hours. At the end of the 72 hour co-culture period, the plates were washed to remove non-adherent-non-viable tumor cells and the remaining adherent viable I^125 labeled tumor cells determined by lysing the cells with sodium dodecyl sulfate and counting radioactivity in a Gamma Counter.
# Activation of human peripheral blood monocytes by liposomes consisting of PC and PG (7:3) containing Compound IIA was determined as described above.
# The effector:target cell ratio was 10:1. The cultures contained a final concentration of 1.0 μg/ml of MDP, Compound IIA or Compound IIA in liposomes.
structure (smiles),measurement,setting,value
"CCCCCCCCCCCCCCCC(=O)OCC(COC(=O)C(C)NC(=O)CCC(NC(=O)C(C)NC(=O)C(C)OC1C(NC(C)=O)C(O)OC(CO)C1OC1OC(CO)C(O)C(O)C1NC(C)=O)C(N)=O)OC(=O)CCCCCCCCCCCCCCC [Compound IIA, 4-O-[2-acetamido-2-deoxy-β-D-glucopyranosyl]-2-acetamido-2-deoxy-3-O-[D-2-propanoyl-L-alanyl-D-isoglutaminyl-L-alanyl-1,2-dipalmitoyl-sn-glycerol]-D-glucopyranose]",PERCENT CYTOTOXICITY,"Experiment 1, 1.0 μg/ml",59%
same,PERCENT CYTOTOXICITY,"Experiment 2, 1.0 μg/ml",37%
